Experimental data published in ChEMBL document CHEMBL1125967, “Total synthesis of L-2,2-difluoro-2-deoxy-MYO-inositol 1,4,5-trisphosphate, a potent inhibitor of the enzymes of d-MYO-inositol 1,4,5-trisphosphate metabolism” (Bioorg Med Chem Lett, 1991).

Key:
[1] = target: Inositol 1,4,5-trisphosphate-gated calcium channel ITPR3 (Homo sapiens, UniProt Q14573); assay: Compound was evaluated for its effective dose to inhibit the calcium release as a measure of affinity for Ins(1,4,5)P3 receptor; type: functional
[2] = target: Inositol 1,4,5-trisphosphate receptor (Homo sapiens, UniProt Q14571+Q14573+Q14643); assay: Compound was evaluated for its effective dose to inhibit the calcium release as a measure of affinity for Inositol 1,4,5-trisphosphate receptor; type: functional
[3] = target: T1, Inositol polyphosphate-5-phosphatase A (Homo sapiens, UniProt Q14642); assay: Compound was evaluated for binding affinity towards Inositol-1,4,5-trisphosphate 5-phosphatase
T1 sequence (Q14642 whole entry): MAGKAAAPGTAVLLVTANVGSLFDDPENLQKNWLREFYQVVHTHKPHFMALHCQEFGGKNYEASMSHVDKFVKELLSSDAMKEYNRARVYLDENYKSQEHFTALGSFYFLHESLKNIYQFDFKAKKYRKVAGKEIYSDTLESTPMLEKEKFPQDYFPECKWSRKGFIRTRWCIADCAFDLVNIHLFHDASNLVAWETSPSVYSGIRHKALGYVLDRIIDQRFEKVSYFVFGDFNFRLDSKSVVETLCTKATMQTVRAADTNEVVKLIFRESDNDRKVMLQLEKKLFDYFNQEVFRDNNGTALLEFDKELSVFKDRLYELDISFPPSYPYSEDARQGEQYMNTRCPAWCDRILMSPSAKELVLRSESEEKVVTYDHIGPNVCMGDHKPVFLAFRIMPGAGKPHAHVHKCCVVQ

[4] = Inhibition of inositol-trisphosphate phosphorylation; parameters: species or system Rattus norvegicus

Sequence of Inositol 1,4,5-trisphosphate-gated calcium channel ITPR3 (Q14573 whole entry): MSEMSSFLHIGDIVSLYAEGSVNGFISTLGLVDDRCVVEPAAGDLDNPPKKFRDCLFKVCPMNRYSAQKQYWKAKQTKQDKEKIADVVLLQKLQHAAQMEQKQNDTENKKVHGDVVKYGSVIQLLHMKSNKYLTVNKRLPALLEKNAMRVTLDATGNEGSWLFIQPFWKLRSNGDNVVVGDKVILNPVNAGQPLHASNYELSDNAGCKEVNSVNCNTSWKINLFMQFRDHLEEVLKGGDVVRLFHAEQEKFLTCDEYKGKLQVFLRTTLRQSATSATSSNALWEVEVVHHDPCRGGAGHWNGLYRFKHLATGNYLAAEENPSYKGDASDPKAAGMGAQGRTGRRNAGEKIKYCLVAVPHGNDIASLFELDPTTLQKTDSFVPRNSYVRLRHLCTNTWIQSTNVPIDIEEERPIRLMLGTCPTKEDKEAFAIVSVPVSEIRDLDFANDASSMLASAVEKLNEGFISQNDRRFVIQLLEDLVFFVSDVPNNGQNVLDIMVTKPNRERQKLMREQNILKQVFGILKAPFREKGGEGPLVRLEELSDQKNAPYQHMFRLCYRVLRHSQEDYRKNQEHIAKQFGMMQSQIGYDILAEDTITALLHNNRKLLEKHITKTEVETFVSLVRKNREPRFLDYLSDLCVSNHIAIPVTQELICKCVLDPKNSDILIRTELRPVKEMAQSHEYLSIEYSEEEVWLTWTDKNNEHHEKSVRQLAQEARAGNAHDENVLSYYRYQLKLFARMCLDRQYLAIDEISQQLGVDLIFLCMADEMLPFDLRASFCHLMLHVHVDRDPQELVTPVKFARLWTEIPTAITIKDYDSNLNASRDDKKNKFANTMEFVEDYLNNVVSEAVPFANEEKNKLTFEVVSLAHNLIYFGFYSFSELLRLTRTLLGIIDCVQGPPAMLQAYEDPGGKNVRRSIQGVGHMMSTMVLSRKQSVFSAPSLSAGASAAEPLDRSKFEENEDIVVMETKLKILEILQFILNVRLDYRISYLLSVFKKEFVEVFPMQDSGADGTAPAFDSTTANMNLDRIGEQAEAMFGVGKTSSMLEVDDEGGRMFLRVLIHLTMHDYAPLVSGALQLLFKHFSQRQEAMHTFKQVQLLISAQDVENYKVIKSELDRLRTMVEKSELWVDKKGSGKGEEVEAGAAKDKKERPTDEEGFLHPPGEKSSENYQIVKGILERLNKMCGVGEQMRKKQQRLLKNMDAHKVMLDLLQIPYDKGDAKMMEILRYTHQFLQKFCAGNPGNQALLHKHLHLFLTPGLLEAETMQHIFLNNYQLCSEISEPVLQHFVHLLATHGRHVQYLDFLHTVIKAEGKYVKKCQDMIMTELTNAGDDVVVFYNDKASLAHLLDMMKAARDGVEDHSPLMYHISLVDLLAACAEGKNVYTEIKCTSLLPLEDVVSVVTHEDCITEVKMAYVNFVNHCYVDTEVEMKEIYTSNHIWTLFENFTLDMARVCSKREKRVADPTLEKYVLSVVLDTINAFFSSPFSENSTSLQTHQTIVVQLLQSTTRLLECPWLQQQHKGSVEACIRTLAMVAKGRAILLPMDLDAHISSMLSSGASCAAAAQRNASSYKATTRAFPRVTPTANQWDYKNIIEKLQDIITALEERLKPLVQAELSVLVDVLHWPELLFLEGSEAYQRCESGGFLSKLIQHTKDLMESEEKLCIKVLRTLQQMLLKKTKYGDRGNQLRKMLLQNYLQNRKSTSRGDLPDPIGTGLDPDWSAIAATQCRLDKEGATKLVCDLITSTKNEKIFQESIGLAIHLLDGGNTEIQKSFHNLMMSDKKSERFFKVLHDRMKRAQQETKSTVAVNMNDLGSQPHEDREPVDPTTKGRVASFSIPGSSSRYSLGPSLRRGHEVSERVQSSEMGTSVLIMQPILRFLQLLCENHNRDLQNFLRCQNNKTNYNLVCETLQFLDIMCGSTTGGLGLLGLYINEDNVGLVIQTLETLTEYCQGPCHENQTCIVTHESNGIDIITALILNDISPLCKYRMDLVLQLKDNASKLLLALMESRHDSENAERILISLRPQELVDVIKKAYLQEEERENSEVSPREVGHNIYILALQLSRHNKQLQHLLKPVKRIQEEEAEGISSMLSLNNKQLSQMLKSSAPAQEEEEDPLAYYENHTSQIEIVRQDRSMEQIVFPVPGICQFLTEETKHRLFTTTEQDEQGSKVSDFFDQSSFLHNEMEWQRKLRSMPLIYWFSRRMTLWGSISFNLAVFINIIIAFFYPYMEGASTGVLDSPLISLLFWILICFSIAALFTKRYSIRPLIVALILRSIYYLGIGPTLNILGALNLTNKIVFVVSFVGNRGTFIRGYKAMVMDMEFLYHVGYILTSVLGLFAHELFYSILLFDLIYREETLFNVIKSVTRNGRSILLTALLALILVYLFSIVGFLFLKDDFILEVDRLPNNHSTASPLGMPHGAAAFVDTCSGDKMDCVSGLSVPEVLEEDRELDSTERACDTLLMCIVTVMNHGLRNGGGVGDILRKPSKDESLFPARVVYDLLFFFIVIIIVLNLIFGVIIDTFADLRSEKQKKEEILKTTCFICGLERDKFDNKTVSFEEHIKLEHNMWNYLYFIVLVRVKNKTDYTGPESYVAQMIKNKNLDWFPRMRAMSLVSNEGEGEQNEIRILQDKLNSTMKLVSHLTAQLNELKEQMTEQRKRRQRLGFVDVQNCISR

Structure (SMILES)	EC50 [1]	EC50 [2]	Ki [3]	Ki [4]
O=P(O)(O)OC1C(O)C(OP(=O)(O)O)C(F)(F)C(O)C1OP(=O)(O)O (stereo not given)	0.21 µM	–	–	–
O=P(O)(O)OC1C(O)C(OP(=O)(O)O)C(F)(F)C(O)C1OP(=O)(O)O (stereo in doubt; L-(4b))	–	53 µM	26 µM	11.5 µM
O=P(O)(O)OC1C(O)C(OP(=O)(O)O)C(F)(F)C(O)C1OP(=O)(O)O (stereo in doubt)	–	0.41 µM	–	–
